From patent EP1247803A2, “Indolinone compounds suitable for modulation of protein kinases” (Sugen, Inc., priority 1996, dated 1998)

Assays:
FLK-1 receptor = target: T1, FLK-1 receptor (Mus musculus, UniProt P35918); assay: FLK-1 ELISA (kinase activity of the FLK-1 receptor in FLK-1/NIH3T3 cells, VEGF stimulated); type: cell-based; parameters: concentration or dose not given beside the values
T1 construct: expressed in transfected cells; host or cells: NIH3T3 C7#3
Method in brief: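 NIH3T3 C7#3 cells expressing FLK-1 were seeded at 25.000 cells/well, serum-starved overnight in 0.1% FBS, then treated with compound for two hours at 37°C (final DMSO 0.5%) before VEGF stimulation. Receptor was captured on anti-rabbit IgG-coated ELISA plates bearing affinity-purified anti-FLK-1 antiserum.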

PDGF-R = PDGF-R (Homo sapiens, UniProt P09619); assay: PDGF-R ELISA; type: cell-based
Sequence of PDGF-R (P09619 33-1106, species assumed): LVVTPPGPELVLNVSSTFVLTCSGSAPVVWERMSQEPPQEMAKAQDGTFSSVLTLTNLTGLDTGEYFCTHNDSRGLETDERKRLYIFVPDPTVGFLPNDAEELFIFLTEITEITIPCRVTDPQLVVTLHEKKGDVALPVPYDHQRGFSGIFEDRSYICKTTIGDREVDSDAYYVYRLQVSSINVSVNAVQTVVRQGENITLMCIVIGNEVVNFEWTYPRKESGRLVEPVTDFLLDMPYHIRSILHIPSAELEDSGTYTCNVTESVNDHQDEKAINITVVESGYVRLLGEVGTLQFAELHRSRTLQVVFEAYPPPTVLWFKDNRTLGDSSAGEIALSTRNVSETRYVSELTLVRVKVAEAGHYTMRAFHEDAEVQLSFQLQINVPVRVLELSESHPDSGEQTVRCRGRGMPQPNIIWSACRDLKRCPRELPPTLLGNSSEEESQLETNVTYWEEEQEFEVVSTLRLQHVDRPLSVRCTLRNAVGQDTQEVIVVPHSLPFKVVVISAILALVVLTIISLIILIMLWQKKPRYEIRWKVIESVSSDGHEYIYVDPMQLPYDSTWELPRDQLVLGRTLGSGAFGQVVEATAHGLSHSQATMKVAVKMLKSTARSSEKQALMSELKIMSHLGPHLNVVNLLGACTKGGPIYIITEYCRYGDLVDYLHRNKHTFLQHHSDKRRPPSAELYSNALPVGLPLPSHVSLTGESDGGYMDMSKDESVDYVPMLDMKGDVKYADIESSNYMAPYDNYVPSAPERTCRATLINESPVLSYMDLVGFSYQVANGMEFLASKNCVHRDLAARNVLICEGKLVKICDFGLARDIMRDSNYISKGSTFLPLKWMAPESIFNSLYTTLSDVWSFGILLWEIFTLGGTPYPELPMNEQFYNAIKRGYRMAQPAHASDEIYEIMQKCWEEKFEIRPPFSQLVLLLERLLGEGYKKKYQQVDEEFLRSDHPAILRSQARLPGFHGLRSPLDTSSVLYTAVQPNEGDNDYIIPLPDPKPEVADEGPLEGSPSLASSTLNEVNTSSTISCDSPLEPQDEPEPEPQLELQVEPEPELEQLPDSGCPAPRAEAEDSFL
Excerpt: A PDGF-R ELISA is described in International Patent Publication No. WO 96/40116, published December 19, 1996 by Tang et al.

MET = MET biochemical kinase assay; parameters: species or system human; concentration or dose not given beside the values
Method in brief: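 Lysate-derived MET, or chimeric receptors, is immobilised on plates through an antibody to the human MET cytoplasmic region. Compounds are added along with kinase buffer supplying ATP and divalent metal ions, and receptor autophosphorylation is quantified by anti-phosphotyrosine ELISA.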

T1 sequence (P35918 20-1345): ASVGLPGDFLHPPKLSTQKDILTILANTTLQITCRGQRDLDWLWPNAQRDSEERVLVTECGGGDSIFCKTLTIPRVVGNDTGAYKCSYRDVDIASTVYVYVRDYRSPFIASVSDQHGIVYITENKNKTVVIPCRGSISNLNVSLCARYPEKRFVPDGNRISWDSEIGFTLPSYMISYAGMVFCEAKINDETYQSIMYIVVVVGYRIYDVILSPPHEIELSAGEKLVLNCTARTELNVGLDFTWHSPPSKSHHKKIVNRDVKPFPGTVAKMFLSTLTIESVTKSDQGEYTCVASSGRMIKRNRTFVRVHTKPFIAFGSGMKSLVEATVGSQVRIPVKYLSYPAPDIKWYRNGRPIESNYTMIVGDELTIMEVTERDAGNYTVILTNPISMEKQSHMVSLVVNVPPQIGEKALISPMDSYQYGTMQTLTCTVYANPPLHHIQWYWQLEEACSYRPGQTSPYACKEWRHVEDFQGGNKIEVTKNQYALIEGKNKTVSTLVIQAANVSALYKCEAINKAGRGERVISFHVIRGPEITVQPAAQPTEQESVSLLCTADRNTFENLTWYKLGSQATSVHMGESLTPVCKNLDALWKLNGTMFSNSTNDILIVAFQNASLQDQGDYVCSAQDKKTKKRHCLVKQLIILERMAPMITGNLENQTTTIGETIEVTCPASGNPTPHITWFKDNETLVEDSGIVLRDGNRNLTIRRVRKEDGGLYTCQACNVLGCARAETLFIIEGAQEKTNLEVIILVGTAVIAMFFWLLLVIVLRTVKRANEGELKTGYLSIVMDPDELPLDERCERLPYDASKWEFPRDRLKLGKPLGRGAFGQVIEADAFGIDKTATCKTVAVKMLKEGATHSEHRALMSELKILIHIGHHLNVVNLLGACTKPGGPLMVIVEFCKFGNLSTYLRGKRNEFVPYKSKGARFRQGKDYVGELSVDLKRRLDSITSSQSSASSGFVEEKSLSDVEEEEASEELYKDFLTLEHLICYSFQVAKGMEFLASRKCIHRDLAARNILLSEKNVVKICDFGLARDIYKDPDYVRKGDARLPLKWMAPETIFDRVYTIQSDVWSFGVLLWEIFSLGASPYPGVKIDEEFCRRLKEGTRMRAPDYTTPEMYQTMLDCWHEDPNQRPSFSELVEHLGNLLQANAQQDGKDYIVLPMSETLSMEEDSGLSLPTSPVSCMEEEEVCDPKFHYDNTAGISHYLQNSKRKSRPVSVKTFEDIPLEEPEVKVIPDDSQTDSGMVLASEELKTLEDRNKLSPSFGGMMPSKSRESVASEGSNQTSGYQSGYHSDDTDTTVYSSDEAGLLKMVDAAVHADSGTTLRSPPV

Row | SMILES | Fik Kinase %Inhibition (FLK-1 receptor) [%] | PDGF Kinase %Inhibition (PDGF-R) [%] | Met Kinase % Inhibition (MET) [%]
1 | O=C1Nc2ccc(S(=O)(=O)N3CCOCC3)cc2C1=Cc1cc2ccccc2nc1Cl [10730/F08] | 2.1 | -0.3 | 46.4
2 | CNS(=O)(=O)c1ccc2c(c1)C(=Cc1ccc(OC)c(OC)c1OC)C(=O)N2 [10730/D02] | 12.4 | 24.3 | 34.7
3 | CC(=O)n1cc(C=C2C(=O)Nc3ccc(Br)c(C)c32)c2ccccc21 [10730/C05] | 11.4 | 8.5 | 46.1
4 | COc1ccc(C=C2C(=O)Nc3ccc(S(=O)(=O)N4CCOCC4)cc32)c(OC)c1OC [10730/F02] | 18.4 | 20.3 | -6.2
5 | COc1ccc(C=C2C(=O)Nc3ccc(CCCl)cc32)c2ccccc12 [10729/G03] | 10.4 | 13.7 | 20.1
6 | COc1ccc(C=C2C(=O)Nc3ccc(S(=O)(=O)Nc4ccc(C(F)(F)F)cc4)cc32)c(OC)c1OC [10730/E02] | 24.8 | 16.4 | 18.8
7 | O=C1Nc2c(Br)cc(Br)cc2C1=Cc1coc2ccc(Cl)cc2c1=O [10730/A06] | -7.0 | 6.3 | 61.0
8 | O=C1Nc2c(Br)cc(Br)cc2C1=Cc1cc2ccccc2nc1Cl [10730/A08] | -2.9 | -6.0 | 69.0
9 | CNS(=O)(=O)c1ccc2c(c1)C(=Cc1coc3c(Br)cc(Br)cc3c1=O)C(=O)N2 [10730/D09] | 9.8 | -1.6 | 59.1
10 | COc1cc(C=C2C(=O)Nc3ccc(S(=O)(=O)Nc4ccc(C(F)(F)F)cc4)cc32)cc(OC)c1OC [10730/E04] | 22.1 | 18.6 | 35.2
11 | O=C1Nc2ccc(I)cc2C1=Cc1ccc(-c2ccccc2Cl)o1 [10730/B07] | 0.6 | 2.4 | 63.1
12 | O=C1Nc2ccc(S(=O)(=O)Nc3ccc(C(F)(F)F)cc3)cc2C1=CC1C=CCCC1 (stereo not drawn) [10729/E11] | 70.9 | 22.4 | 50.8
13 | COC1CC(C=C2C(=O)Nc3ccc(S(=O)(=O)Nc4ccc(C(F)(F)F)cc4)cc32)C(OC)O1 (stereo not drawn) [10730/E10] | 26.0 | 39.6 | 63.6
14 | COc1cc(OC)c(OC)cc1C=C1C(=O)Nc2ccc(S(=O)(=O)N3CCOCC3)cc21 [10730/F03] | 11.7 | 1.5 | -0.6
15 | O=C1Nc2ccc(S(=O)(=O)N3CCOCC3)cc2C1=Cc1coc2ccc(Cl)cc2c1=O [10730/F06] | 21.9 | 3.2 | 56.5
16 | COc1cc(C=C2C(=O)Nc3ccc(S(=O)(=O)N4CCOCC4)cc32)cc(OC)c1OC [10730/F04] | 18.3 | 28.7 | 36.0
17 | COc1cc(OC)c(OC)cc1C=C1C(=O)Nc2ccc(S(=O)(=O)Nc3ccc(C(F)(F)F)cc3)cc21 [10730/E03] | 34.5 | 14.6 | 53.3
18 | COc1ccc(C=C2C(=O)Nc3ccc(Br)c(C)c32)c(OC)c1OC [10730/C02] | 48.8 | 26.5 | 31.2
19 | COC1CC(C=C2C(=O)Nc3c(Br)cc(Br)cc32)C(OC)O1 (stereo not drawn) [10730/A10] | 0.5 | 1.0 | 68.7

Row | SMILES | Fik Kinase %Inhibition (FLK-1 receptor) [%] | PDGF Kinase %Inhibition (PDGF-R) [%] | Met Kinase % Inhibition (MET) [%]
20 | O=C1Nc2ccc(CCCl)cc2C1=CC1C=CCCC1 (stereo not drawn) [10729/G11] | -0.5 | 3.8 | 15.4
21 | Cc1c(Br)ccc2c1C(=Cc1coc3ccc(Cl)cc3c1=O)C(=O)N2 [10730/C06] | 5.3 | 7.6 | 34.7
22 | CC(=O)n1cc(C=C2C(=O)Nc3ccc(I)cc32)c2ccccc21 [10730/B05] | -0.5 | -2.9 | 71.1
23 | O=C1Nc2ccc(S(=O)(=O)N3CCOCC3)cc2C1=Cc1ccc(-c2ccccc2Cl)o1 [10730/F07] | 67.5 | -2.0 | 60.7
24 | COC1CC(C=C2C(=O)Nc3ccc(Br)c(C)c32)C(OC)O1 (stereo not drawn) [10730/C10] | 15.4 | 44.4 | 40.3
25 | COc1cc(C=C2C(=O)Nc3ccc(Br)c(C)c32)cc(OC)c1OC [10730/C04] | 46.1 | 15.5 | 43.2
26 | O=C1Nc2c(Br)cc(Br)cc2C1=Cc1coc2c(Br)cc(Br)cc2c1=O [10730/A09] | 1.9 | -4.7 | 69.5
27 | CNS(=O)(=O)c1ccc2c(c1)C(=Cc1cc(C)c(C)o1)C(=O)N2 [10730/D11] | 7.7 | -0.7 | 9.7
28 | COc1cc(C=C2C(=O)Nc3c(Br)cc(Br)cc32)cc(OC)c1OC [10730/A04] | -9.9 | -5.1 | 70.6
29 | Cc1cc(C=C2C(=O)Nc3ccc(I)cc32)oc1C [10730/B11] | 1.9 | -13.9 | 81.7
30 | O=C1Nc2ccc(I)cc2C1=Cc1coc2ccc(Cl)cc2c1=O [10730/B06] | 2.4 | 7.6 | 71.3
31 | Cc1c(Br)ccc2c1C(=Cc1coc3c(Br)cc(Br)cc3c1=O)C(=O)N2 [10730/C09] | 14.0 | 18.1 | 42.9
32 | CC(=O)n1cc(C=C2C(=O)Nc3ccc(S(=O)(=O)Nc4ccc(C(F)(F)F)cc4)cc32)c2ccccc21 [10730/E05] | 8.7 | 28.7 | 49.0
33 | Cc1ccsc1C=C1C(=O)Nc2ccc(CCCl)cc21 [10729/G05] | 8.7 | 9.9 | 22.6
34 | CNS(=O)(=O)c1ccc2c(c1)C(=Cc1coc3ccc(Cl)cc3c1=O)C(=O)N2 [10730/D06] | 5.8 | -2.0 | 55.9
35 | CNS(=O)(=O)c1ccc2c(c1)C(=Cc1cc3ccccc3nc1Cl)C(=O)N2 [10730/D08] | 8.6 | 12.9 | -13.6
36 | COc1ccc(C=C2C(=O)Nc3ccc(I)cc32)c(OC)c1OC [10730/B02] | 5.0 | 5.4 | 66.3
37 | CNS(=O)(=O)c1ccc2c(c1)C(=Cc1cc(OC)c(OC)c(OC)c1)C(=O)N2 [10730/D04] | 9.1 | 20.8 | 33.6
38 | Cc1c(Br)ccc2c1C(=Cc1ccc(-c3ccccc3Cl)o1)C(=O)N2 [10730/C07] | 7.3 | 1.0 | 37.4
